The source of these data is publication PMC5372681, “Study of Different Variants of Mo Enzyme crARC and the Interaction with Its Partners crCytb5-R and crCytb5-1” (International Journal of Molecular Sciences, 2017).

Assay type in all cases: biochemical
The target of test [1] is T1, crARC (Chlamydomonas reinhardtii, UniProt F8UWQ7).
T1 construct: gene ARC; N-terminal His6 (pQE80), E. coli TP1000, Ni-NTA
The test can be described thus: HPLC of benzamidine formed. The settings on record: 1 mM benzamidoxime, 3 mM dithionite, 2 mM benzylviologen, 100 mM potassium phosphate pH 7.4, 37 °C.

The target of test [2] is T2, crARC (Chlamydomonas reinhardtii, UniProt F8UWQ7, R276A).
T2 construct: gene ARC; N-terminal His6 (pQE80), E. coli TP1000, Ni-NTA
T2 sequence (F8UWQ7 entry or part of it R276A): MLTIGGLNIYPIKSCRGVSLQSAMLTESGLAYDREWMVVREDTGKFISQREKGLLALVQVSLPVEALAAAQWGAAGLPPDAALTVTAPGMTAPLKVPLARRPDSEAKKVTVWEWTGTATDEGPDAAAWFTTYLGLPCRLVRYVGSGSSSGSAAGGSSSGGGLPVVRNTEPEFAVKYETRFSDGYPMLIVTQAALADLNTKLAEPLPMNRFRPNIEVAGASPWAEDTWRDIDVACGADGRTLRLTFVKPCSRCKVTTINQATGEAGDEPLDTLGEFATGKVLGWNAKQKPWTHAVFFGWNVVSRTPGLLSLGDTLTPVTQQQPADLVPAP
Description: HPLC of adenine formed. The settings on record: 0.5 mM HAP, 3 mM dithionite, 2 mM benzylviologen, 100 mM potassium phosphate pH 7.4, 37 °C.

Test [3] addresses T1, crARC. Description: HPLC of adenine formed. The settings on record: 0.5 mM HAP, 3 mM dithionite, 2 mM benzylviologen, 100 mM potassium phosphate pH 7.4, 37 °C.
Test [4] deals with T3, crARC (Chlamydomonas reinhardtii, UniProt F8UWQ7, D182A).
T3 construct: gene ARC; N-terminal His6 (pQE80), E. coli TP1000, Ni-NTA
T3 sequence (F8UWQ7 entry or part of it D182A): as the sequence (F8UWQ7 entry or part of it R276A) above, with D182A, A276R counted along it
Description: HPLC of adenine formed. Conditions: 0.5 mM HAP, 3 mM dithionite, 2 mM benzylviologen, 100 mM potassium phosphate pH 7.4, 37 °C.

For test [5], the target named is T4, crARC (Chlamydomonas reinhardtii, UniProt F8UWQ7, F210A).
T4 construct: gene ARC; N-terminal His6 (pQE80), E. coli TP1000, Ni-NTA
T4 sequence (F8UWQ7 entry or part of it F210A): as the sequence (F8UWQ7 entry or part of it R276A) above, with F210A, A276R counted along it
Description: HPLC of adenine formed. The settings on record: 0.5 mM HAP, 3 mM dithionite, 2 mM benzylviologen, 100 mM potassium phosphate pH 7.4, 37 °C.

T1 sequence (F8UWQ7 entry or part of it): as the sequence (F8UWQ7 entry or part of it R276A) above, with A276R counted along it

Turning to `NC(=NO)c1ccccc1` [benzamidoxime], at crARC [1], the “HPLC of benzamidine formed” value is given as “the crARC activity was assayed in vitro using benzamidoxime as a substrate”.
`ONc1ncnc2[nH]cnc12` [HAP]: the “HPLC of adenine formed” value at crARC [2] was “the mutants, D182A, F210A and R276A almost completely lost the mARC activity with dithionite”; on crARC [3], “The crARC HAP reduction activity was determined with dithionite”; on crARC [4] it was “the mutants, D182A, F210A and R276A almost completely lost the mARC activity with dithionite”; on crARC [5], “the mutants, D182A, F210A and R276A almost completely lost the mARC activity with dithionite”.
